Measurements from patent US20130190407A1, “CALCIUM RECEPTOR-ACTIVE MOLECULES” (NPS Pharmaceuticals, Inc., priority 1991, published 2013).

Columns and labels:
Format in all cases: cell-based
[1] = target: T1, human parathyroid cell calcium receptor (Homo sapiens, UniProt P41180, E1011Q/Q926R); test: Cl- current in Xenopus oocytes injected with pHuPCaR 5.2; conditions: 3 to 30 μM; 0.3 mM extracellular Ca2+
T1 construct: appear to be full-length clones corresponding to the 5 Kb mRNA; expressed in transfected cells; host or cells: Xenopus laevis oocytes injected with pHuPCaR 5.2
T1 sequence (P41180 20-1088 isoform P41180-2 Q936R/E1021Q): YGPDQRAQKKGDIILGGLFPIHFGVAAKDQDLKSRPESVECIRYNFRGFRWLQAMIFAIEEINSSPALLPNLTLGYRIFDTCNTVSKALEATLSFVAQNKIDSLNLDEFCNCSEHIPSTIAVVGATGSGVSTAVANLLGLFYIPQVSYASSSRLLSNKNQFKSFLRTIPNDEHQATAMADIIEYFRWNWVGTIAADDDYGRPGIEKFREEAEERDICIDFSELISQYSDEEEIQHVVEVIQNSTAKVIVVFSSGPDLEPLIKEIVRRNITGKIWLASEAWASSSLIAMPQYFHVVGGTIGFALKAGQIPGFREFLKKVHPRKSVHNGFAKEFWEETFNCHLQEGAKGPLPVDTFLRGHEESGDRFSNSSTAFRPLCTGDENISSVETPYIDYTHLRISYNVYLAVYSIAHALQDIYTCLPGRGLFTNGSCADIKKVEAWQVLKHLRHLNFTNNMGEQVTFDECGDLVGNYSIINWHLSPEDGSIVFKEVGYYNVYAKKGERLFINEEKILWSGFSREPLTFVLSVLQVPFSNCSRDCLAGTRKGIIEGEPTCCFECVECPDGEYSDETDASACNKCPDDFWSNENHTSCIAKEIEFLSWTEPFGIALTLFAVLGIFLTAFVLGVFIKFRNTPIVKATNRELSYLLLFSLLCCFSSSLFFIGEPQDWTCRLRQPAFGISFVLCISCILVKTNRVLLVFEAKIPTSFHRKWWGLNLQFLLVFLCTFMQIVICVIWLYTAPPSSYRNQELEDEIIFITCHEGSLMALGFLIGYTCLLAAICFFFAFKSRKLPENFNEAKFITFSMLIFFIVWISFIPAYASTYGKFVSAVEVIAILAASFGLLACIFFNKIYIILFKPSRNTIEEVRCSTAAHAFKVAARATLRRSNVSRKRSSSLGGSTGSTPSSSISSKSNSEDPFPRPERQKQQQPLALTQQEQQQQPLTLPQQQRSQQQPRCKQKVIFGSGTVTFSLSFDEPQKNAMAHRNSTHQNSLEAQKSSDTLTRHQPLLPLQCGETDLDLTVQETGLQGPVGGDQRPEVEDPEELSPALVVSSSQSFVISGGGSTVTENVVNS
Procedure: Xenopus oocytes were injected with pHuPCaR 5.2, the 5.2 Kb cDNA encoding a parathyroid cell calcium receptor derived from a human parathyroid cell adenoma. (See Example 27.) After two to three days, Cl^− currents were measured in the oocytes using a two-electrode voltage clamp.

[2] = target: T2, osteoclast calcium receptor (Rattus norvegicus, UniProt P48442); test: [Ca2+]i (indo-1) in single rat osteoclasts
T2 sequence (P48442 20-1079): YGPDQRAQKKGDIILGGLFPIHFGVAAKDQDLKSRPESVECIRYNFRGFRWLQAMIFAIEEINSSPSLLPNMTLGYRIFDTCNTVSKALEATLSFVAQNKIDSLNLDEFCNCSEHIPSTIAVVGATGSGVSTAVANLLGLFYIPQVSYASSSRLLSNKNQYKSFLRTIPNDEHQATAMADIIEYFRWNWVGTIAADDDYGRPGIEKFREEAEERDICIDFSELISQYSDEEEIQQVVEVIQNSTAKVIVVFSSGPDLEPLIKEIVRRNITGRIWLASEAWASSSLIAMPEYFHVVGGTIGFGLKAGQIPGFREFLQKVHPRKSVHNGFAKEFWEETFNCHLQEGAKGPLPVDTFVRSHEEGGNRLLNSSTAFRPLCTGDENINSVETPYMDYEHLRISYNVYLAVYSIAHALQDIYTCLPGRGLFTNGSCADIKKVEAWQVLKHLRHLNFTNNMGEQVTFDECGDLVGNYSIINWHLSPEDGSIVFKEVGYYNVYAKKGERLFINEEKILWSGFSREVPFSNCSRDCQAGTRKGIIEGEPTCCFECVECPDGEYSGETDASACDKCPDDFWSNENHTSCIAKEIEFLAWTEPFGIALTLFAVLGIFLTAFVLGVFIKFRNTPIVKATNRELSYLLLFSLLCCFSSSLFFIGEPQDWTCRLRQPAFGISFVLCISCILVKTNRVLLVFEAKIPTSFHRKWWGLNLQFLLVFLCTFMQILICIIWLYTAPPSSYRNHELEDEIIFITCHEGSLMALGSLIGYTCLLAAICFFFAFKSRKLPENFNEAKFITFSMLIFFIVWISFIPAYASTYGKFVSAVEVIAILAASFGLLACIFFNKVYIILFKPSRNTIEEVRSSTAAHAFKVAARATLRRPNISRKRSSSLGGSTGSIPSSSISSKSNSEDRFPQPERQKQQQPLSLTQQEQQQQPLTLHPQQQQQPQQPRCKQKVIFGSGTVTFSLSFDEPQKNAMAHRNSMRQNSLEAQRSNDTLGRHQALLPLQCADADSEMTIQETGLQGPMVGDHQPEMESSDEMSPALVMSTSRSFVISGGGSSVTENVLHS

Bovine parathyroid cells = test: PTH secretion from bovine parathyroid cells; conditions: concentrations that mobilize intracellular Ca2+
Procedure: (§1) PTH secretion was measured by first suspending cells in PCB containing 0.5 mM CaCl2 and 0.1% BSA.
Counting of samples and data reduction were performed on a Packard Cobra 5005 gamma counter.

human parathyroid cells = test: PTH secretion from human parathyroid cells; conditions: concentrations that mobilize intracellular Ca2+
Procedure: as §1
For human cells, a commercially available radioimmunoassay kit (INS-PTH; Nichols Institute, Los Angeles, Calif.) which recognizes intact and N-terminal human PTH was used because GW-1 antibody recognizes human PTH poorly.

SMILES	Cl- current [1]	compounds that caused any large increase in [Ca2+]i [2]	effect on response to subsequent extracellular Ca2+ [2]	increase in [Ca2+]i [2]	EC50 OSTEOCLAST ([2]; Table 6, rat osteoclasts, indo-1)	PTH secretion (Bovine parathyroid cells)	PTH secretion (human parathyroid cells)
COc1cccc([C@@H](C)NCCCc2ccccc2Cl)c1 [NPS R-568, (R)-(+)-N-[3-(2-chlorophenyl)propyl]-α-methyl-3-methoxybenzylamine]	evoked increases in the Cl^− current	–	–	–	–	–	–
NC[C@@H]1O[C@H](O[C@H]2[C@@H](O)[C@H](O[C@@H]3[C@@H](O)[C@H](N)C[C@H](N)[C@H]3O[C@H]3O[C@H](CN)[C@@H](O)[C@H](O)[C@H]3N)O[C@@H]2CO)[C@H](N)[C@@H](O)[C@@H]1O [Neomycin B, neomycin B]	–	none	did not block the increase	failed to evoke any increase	inactive	inhibited PTH secretion to the same extent as extracellular Ca^2+	inhibited PTH secretion
